The structures appear in SMILES notation.

These results are taken from ChEMBL document CHEMBL2073966, “Cloning and functional characterization of a new multispecific organic anion transporter, OAT-K2, in rat kidney” (Mol Pharmacol, 1999).

The first data set addresses T1, Solute carrier organic anion transporter family member 1A3 (Rattus norvegicus, UniProt P70502).
T1 sequence (P70502 whole entry): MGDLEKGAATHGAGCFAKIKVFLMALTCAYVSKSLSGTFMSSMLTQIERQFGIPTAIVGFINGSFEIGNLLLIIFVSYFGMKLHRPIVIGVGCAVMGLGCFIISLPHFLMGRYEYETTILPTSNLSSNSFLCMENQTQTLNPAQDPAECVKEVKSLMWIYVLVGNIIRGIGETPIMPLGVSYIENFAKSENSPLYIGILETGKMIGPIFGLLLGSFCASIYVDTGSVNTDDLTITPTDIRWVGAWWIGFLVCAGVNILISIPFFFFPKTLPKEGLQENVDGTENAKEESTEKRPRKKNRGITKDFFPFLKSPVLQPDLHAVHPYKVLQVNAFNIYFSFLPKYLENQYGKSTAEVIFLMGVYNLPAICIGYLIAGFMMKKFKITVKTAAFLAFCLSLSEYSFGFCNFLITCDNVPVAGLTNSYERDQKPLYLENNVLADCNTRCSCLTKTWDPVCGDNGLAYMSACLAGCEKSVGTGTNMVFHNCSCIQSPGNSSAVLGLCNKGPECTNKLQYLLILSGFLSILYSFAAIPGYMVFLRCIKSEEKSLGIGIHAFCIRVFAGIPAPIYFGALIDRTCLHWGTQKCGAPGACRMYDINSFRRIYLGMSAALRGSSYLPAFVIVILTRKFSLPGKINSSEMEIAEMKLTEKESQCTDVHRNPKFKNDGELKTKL
Briefly: TP_TRANSPORTER: inhibition of Taurocholate uptake in OAT-K2-expressing MDCK cells. Particulars: dog. In kind it is functional, cell-based.
With `CC(=O)S[C@@H]1CC2=CC(=O)CC[C@]2(C)[C@H]2CC[C@@]3(C)[C@@H](CC[C@@]34CCC(=O)O4)[C@H]12` [SPIRONOLACTONE], the Activity result was “inhibitor [+]”.

Consider `CCCN(CCC)S(=O)(=O)c1ccc(C(=O)O)cc1` [PROBENECID], for which the Activity entry was “inhibitor [+]”.

For the molecule `C[C@]12C=CC(=O)C=C1CC[C@@H]1[C@@H]2[C@@H](O)C[C@@]2(C)[C@H]1CC[C@]2(O)C(=O)CO` [PREDNISOLONE], the Activity result is “inhibitor [+]”.

On to `C[C@@H]1C[C@H]2[C@@H]3CCC4=CC(=O)C=C[C@]4(C)[C@@]3(F)[C@@H](O)C[C@]2(C)[C@@]1(O)C(=O)CO` [DEXAMETHASONE], for which the Activity entry is “inhibitor [+]”.

Regarding `C[C@H](CCC(=O)NCCS(=O)(=O)O)[C@H]1CC[C@H]2[C@@H]3CC[C@@H]4C[C@H](O)CC[C@]4(C)[C@H]3C[C@H](O)[C@]12C` [TAURODEOXYCHOLIC ACID], the Activity result was “inhibitor [+]”.

As to `O=C1OC(c2ccc(O)c(S(=O)(=O)[O-])c2)(c2ccc(O)c(S(=O)(=O)[O-])c2)c2c(Br)c(Br)c(Br)c(Br)c21.[Na+].[Na+]` [SULFOBROMOPHTHALEIN SODIUM], the Activity result was “inhibitor [+]”.

For `COc1ccc2c(c1)c(CC(=O)O)c(C)n2C(=O)c1ccc(Cl)cc1` [INDOMETHACIN], the Activity result was “inhibitor [+]”.

For `C[C@H](CCC(=O)O)[C@H]1CC[C@H]2[C@@H]3CC[C@@H]4C[C@H](O)CC[C@]4(C)[C@H]3C[C@H](O)[C@]12C` [DEOXYCHOLIC ACID], the Activity result was “inhibitor [+]”.

For `C[C@H](CCC(=O)NCC(=O)O)[C@H]1CC[C@H]2[C@@H]3[C@H](O)C[C@@H]4C[C@H](O)CC[C@]4(C)[C@H]3C[C@H](O)[C@]12C` [GLYCOCHOLIC ACID], the Activity entry was “inhibitor [+]”.

Consider `C[C@H](CCC(=O)NCCS(=O)(=O)O)[C@H]1CC[C@H]2[C@@H]3[C@H](O)C[C@@H]4C[C@H](O)CC[C@]4(C)[C@H]3CC[C@]12C` [TAUROCHENODEOXYCHOLATE], for which the Activity result is “inhibitor [+]”.

For the molecule `C[C@]12CC[C@@H]3c4ccc(O)cc4CC[C@H]3[C@@H]1C[C@@H](O)[C@@H]2O` [ESTRIOL], the Activity entry is “inhibitor [+]”.

Regarding `C[C@]12CC[C@@H]3c4ccc(O)cc4CC[C@H]3[C@@H]1CC[C@@H]2O` [ESTRADIOL], the Activity entry is “inhibitor [+]”.

Consider `C[C@]12CC[C@H]3[C@@H](CCC4=CC(=O)CC[C@@]43C)[C@@H]1CC[C@@H]2O` [TESTOSTERONE], for which the Activity entry was “inhibitor [+]”.

`C[C@H](CCC(=O)O)[C@H]1CC[C@H]2[C@@H]3[C@@H](O)C[C@@H]4C[C@H](O)CC[C@]4(C)[C@H]3CC[C@]12C` [URSODIOL]: the Activity entry was “inhibitor [+]”.

Turning to `C[C@H](CCC(=O)NCC(=O)O)[C@H]1CC[C@H]2[C@@H]3[C@H](O)C[C@@H]4C[C@H](O)CC[C@]4(C)[C@H]3CC[C@]12C` [GLYCOCHENODEOXYCHOLATE], the Activity result was “inhibitor [+]”.

The target in another data set is T1, Solute carrier organic anion transporter family member 1A3. Put plainly: TP_TRANSPORTER: uptake in Xenopus laevis oocytes. It counts as functional, cell-based. The conditions noted are these: oocyte.
On to `CN(Cc1cnc2nc(N)nc(N)c2n1)c1ccc(C(=O)N[C@@H](CCC(=O)O)C(=O)O)cc1` [METHOTREXATE], for which the Activity result is “substrate [+]”.

Regarding `CCCCC[C@H](O)/C=C/[C@H]1[C@H](O)CC(=O)[C@@H]1C/C=C\CCCC(=O)O` [DINOPROSTONE], the Activity result was “substrate [+]”.

Regarding `Nc1nc2ncc(CNc3ccc(C(=O)N[C@@H](CCC(=O)O)C(=O)O)cc3)nc2c(=O)[nH]1` [FOLIC ACID], the Activity entry is “substrate [+]”.

A further data set shares this target. Put plainly: TP_TRANSPORTER: uptake in OAT-K2-expressing MDCK cells. In kind it is functional, cell-based. Particulars: dog.
Turning to `CCCCC[C@H](O)/C=C/[C@H]1[C@H](O)CC(=O)[C@@H]1C/C=C\CCCC(=O)O` [DINOPROSTONE], the Activity result was “substrate [+]”.
